In ChEMBL document CHEMBL1155346, “Synthesis, photochemical E (trans)-->Z (cis) isomerization and antimicrobial activity of 2-chloro-5-methylpyridine-3-olefin derivatives” (2009):
Converted amounts (≈) assume the structure as drawn.

Key:
Format in all cases: functional
Rhizopus arrhizus [1] = assay: Antifungal activity against Rhizopus oryzae at 100 ug; details: read-out: DIZ
Escherichia coli = assay: Antibacterial activity against Escherichia coli by broth dilution method
Saccharomyces cerevisiae [2] = assay: Antifungal activity against Saccharomyces cerevisiae at 100 ug; details: read-out: DIZ
Candida albicans [3] = assay: Antifungal activity against Candida albicans at 150 ug; details: read-out: DIZ
Bacillus subtilis = assay: Antibacterial activity against Bacillus subtilis MTCC 441 by broth dilution method
Staphylococcus aureus = assay: Antibacterial activity against Staphylococcus aureus MTCC 11 by broth dilution method
Saccharomyces cerevisiae [4] = assay: Antifungal activity against Saccharomyces cerevisiae at 150 ug; details: read-out: DIZ
Aspergillus niger [5] = assay: Antifungal activity against Aspergillus niger at 100 ug; details: read-out: DIZ
Pseudomonas aeruginosa = assay: Antibacterial activity against Pseudomonas aeruginosa MTCC 741 by broth dilution method
Candida albicans [6] = assay: Antifungal activity against Candida albicans at 100 ug; details: read-out: DIZ
Aspergillus niger [7] = assay: Antifungal activity against Aspergillus niger at 150 ug; details: read-out: DIZ
Rhizopus arrhizus [8] = assay: Antifungal activity against Rhizopus oryzae at 150 ug; details: read-out: DIZ

SMILES | zone of inhibition at 100 µg/disc (Rhizopus arrhizus [1]) [mm] | MIC (Escherichia coli) [µg/mL] | zone of inhibition at 100 µg/disc (Saccharomyces cerevisiae [2]) [mm] | zone of inhibition at 150 µg/disc (Candida albicans [3]) [mm] | MIC (Bacillus subtilis) [µg/mL] | MIC (Staphylococcus aureus) [µg/mL] | zone of inhibition at 150 µg/disc (Saccharomyces cerevisiae [4]) [mm] | zone of inhibition at 100 µg/disc (Aspergillus niger [5]) [mm] | MIC (Pseudomonas aeruginosa) [µg/mL] | zone of inhibition at 100 µg/disc (Candida albicans [6]) [mm] | zone of inhibition at 150 µg/disc (Aspergillus niger [7]) [mm] | zone of inhibition at 150 µg/disc (Rhizopus arrhizus [8]) [mm]
Cc1cnc(Cl)c(/C=C\CO)c1 | 14 | 75 (≈ 408 µM) | 11 | 14 | 37.5 (≈ 204 µM) | 37.5 (≈ 204 µM) | 13 | 12 | 75 (≈ 408 µM) | 11 | 16 | 17
Cc1cnc(Cl)c(/C=C/C#N)c1 | 10 | 75 (≈ 420 µM) | – | 12 | 75 (≈ 420 µM) | 75 (≈ 420 µM) | – | 13 | 75 (≈ 420 µM) | 10 | 15 | 12
CN[C@@H]1[C@H](O[C@H]2[C@H](O[C@H]3[C@H](O)[C@@H](O)[C@H](N=C(N)N)[C@@H](O)[C@@H]3N=C(N)N)O[C@@H](C)[C@]2(O)C=O)O[C@@H](CO)[C@H](O)[C@H]1O [STREPTOMYCIN] | – | 1.56 (≈ 2.69 µM) | – | – | 6.25 (≈ 10.7 µM) | 6.25 (≈ 10.7 µM) | – | – | 3.12 (≈ 5.37 µM) | – | – | –
Cc1cnc(Cl)c(/C=C/CO)c1 | 16 | 37.5 (≈ 204 µM) | 12 | 15 | 37.5 (≈ 204 µM) | 75 (≈ 408 µM) | 14 | 14 | 37.5 (≈ 204 µM) | 13 | 17 | 18
CC(=O)/C=C\c1cc(C)cnc1Cl | 11 | 37.5 (≈ 192 µM) | – | 11 | 37.5 (≈ 192 µM) | 75 (≈ 383 µM) | – | 14 | 37.5 (≈ 192 µM) | 9 | 16 | 13
COC(=O)/C=C/c1cc(C)cnc1Cl | 10 | 37.5 (≈ 177 µM) | – | 11 | 37.5 (≈ 177 µM) | 75 (≈ 354 µM) | – | 16 | 75 (≈ 354 µM) | 8 | 17 | 11
Cc1cnc(Cl)c(/C=C\C#N)c1 | 9 | 37.5 (≈ 210 µM) | – | 10 | 37.5 (≈ 210 µM) | 75 (≈ 420 µM) | – | 9 | 75 (≈ 420 µM) | – | 12 | 10
C[C@@H]1[C@H](O)[C@@H](C)/C=C/C=C/C=C/C=C/C=C/C=C/C=C/[C@H](O[C@@H]2O[C@H](C)[C@@H](O)[C@H](N)[C@@H]2O)C[C@@H]2O[C@](O)(C[C@@H](O)C[C@@H](O)[C@H](O)CC[C@@H](O)C[C@@H](O)CC(=O)O[C@H]1C)C[C@H](O)[C@H]2C(=O)O [AMPHOTERICIN B] | 23 | – | 22 | – | – | – | – | 26 | – | 23.5 | – | –
CC(=O)/C=C/c1cc(C)cnc1Cl | 12 | 75 (≈ 383 µM) | – | 17 | 37.5 (≈ 192 µM) | 37.5 (≈ 192 µM) | – | 13 | 75 (≈ 383 µM) | 13 | 14 | 13
COC(=O)/C=C\c1cc(C)cnc1Cl | 10 | 37.5 (≈ 177 µM) | – | 13 | 37.5 (≈ 177 µM) | 8.12 (≈ 38.4 µM) | – | 14 | 37.5 (≈ 177 µM) | 11 | 17 | 11
CC1(C)S[C@@H]2[C@H](NC(=O)Cc3ccccc3)C(=O)N2[C@H]1C(=O)O [PENICILLIN G] | – | 12.5 (≈ 37.4 µM) | – | – | 1.56 (≈ 4.67 µM) | 1.56 (≈ 4.67 µM) | – | – | 12.5 (≈ 37.4 µM) | – | – | –
